Measured values taken from patent US12649765B2 (Arizona Board of Regents on Behalf of the University of …, priority 2020, dated 2026).
Entries after “also recorded” stand apart in the source; their conditions may differ. Where a SMILES comes first, the peptide text is derived from it. Bridges are numbered along the chain shown (N, C = ends). [ ]: non-standard residue; d: D form. The star is where a group is joined. X1 = OC[C@H]1OC(*)[C@H](O)[C@@H](O)[C@@H]1O; Dap = NC[C@H](N)C(=O)O

Tests used:
OTR = OTR (Homo sapiens, UniProt P30559); test: EC50 (nM) | OTR
Chain of OTR (P30559 whole entry, looked up): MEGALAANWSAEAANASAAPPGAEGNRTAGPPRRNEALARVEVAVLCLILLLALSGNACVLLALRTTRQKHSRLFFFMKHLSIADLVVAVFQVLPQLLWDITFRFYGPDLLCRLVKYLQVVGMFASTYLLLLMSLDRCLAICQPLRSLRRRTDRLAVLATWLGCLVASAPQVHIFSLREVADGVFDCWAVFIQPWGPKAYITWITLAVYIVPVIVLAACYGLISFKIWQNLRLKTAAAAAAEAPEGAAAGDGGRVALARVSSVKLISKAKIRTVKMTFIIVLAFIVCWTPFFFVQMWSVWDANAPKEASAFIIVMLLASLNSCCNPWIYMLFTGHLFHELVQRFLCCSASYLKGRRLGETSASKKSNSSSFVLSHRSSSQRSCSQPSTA
Description: Table printed on a drawing sheet, FIG. 6
The patent's description of the figure: FIG. 6 is a table showing EC50 for OXTR agonistic activity for some of the representative cyclic oligopeptides of the invention.
First copying reader's note: Each value cell holds the EC50 together with its ± error; NA is not defined on the sheet.

[1] = target: human Mu Opioid Receptor (MOR) (Homo sapiens, UniProt P35372); test: biochemical; type: binding
Chain of human Mu Opioid Receptor (MOR) (P35372 whole entry): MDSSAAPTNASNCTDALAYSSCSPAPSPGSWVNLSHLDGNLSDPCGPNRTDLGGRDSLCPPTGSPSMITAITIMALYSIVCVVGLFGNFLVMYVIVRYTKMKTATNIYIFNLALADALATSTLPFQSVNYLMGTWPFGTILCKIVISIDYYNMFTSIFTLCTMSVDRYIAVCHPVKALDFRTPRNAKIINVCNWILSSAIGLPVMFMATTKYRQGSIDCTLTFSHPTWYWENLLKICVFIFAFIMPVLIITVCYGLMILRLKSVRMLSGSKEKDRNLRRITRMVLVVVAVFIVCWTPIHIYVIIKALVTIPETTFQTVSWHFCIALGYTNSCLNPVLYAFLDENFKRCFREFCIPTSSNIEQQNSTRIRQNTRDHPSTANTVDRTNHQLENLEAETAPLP

[2] = 52° C. warm water tail flick assay, iv injection; type: in vivo, CD-1 mice; settings: 10 mg/kg iv; for anti-nociception in tail flick assay: 10 second cutoff, male and female CD-1 mice
[3] = Paclitaxel-induced CIPN, Von Frey filaments mechanical threshold, icv injection; type: in vivo, CD-1 mice; settings: 10 nmol icv on day 8, 2 mg/kg paclitaxel on days 1, 3, 5, 7
[4] = 52° C. warm water tail flick assay, icv injection; type: in vivo; settings: 10 nmol icv, male and female CD-1 mice

| SMILES | EC50 (OTR) [nM] | IC50 [1] [nM] | Ki [1] [nM] | peak effect in tail flick assay [2] | anti-nociception in tail flick assay [2] | anti-nociception in CIPN model (mechanical threshold) [3] | anti-nociception in tail flick assay [4] | anti-nociception in tail flick assay ([2]; listed as Native OT) |
| --- | --- | --- | --- | --- | --- | --- | --- | --- |
| CC[C@H](C)[C@@H]1NC(=O)[C@H](Cc2ccc(O)cc2)NC(=O)[C@@H](N)CC(=O)NC[C@@H](C(=O)N2CCC[C@H]2C(=O)N[C@@H](CC(C)C)C(=O)NCC(N)=O)NC(=O)[C@H](CC(N)=O)NC(=O)[C@H](CCC(N)=O)NC1=O [2LS118-1, Asp-Tyr-Ile-Gln-Asn-Dap-Pro-Leu-Gly-CONH2 (SEQ ID NO: 5)] (H-DYIQN[Dap]PLG-NH2; lactam 1-6) | 3760 ± 3120 | > 2500 | > 2500 |  |  |  |  |  |
| CC[C@H](C)[C@@H]1NC(=O)[C@H](Cc2ccc(O)cc2)NC(=O)[C@@H](N)CCC(=O)NC[C@@H](C(=O)N2CCC[C@H]2C(=O)N[C@@H](CC(C)C)C(=O)NCC(N)=O)NC(=O)[C@H](CC(N)=O)NC(=O)[C@H](CCC(N)=O)NC1=O [2LS118-2, Glu-Tyr-Ile-Gln-Asn-Dap-Pro-Leu-Gly-CONH2 (SEQ ID NO: 6)] (H-EYIQN[Dap]PLG-NH2; lactam 1-6) | 7040 ± 2960 | > 2500 | > 2500 |  |  |  |  |  |
| CC[C@H](C)[C@@H]1NC(=O)[C@H](Cc2ccc(O)cc2)NC(=O)[C@@H](N)CNC(=O)C[C@@H](C(=O)N2CCC[C@H]2C(=O)N[C@@H](CC(C)C)C(=O)NCC(N)=O)NC(=O)[C@H](CC(N)=O)NC(=O)[C@H](CCC(N)=O)NC1=O [2LS118-3, Dap-Tyr-Ile-Gln-Asn-Asp-Pro-Leu-Gly-CONH2 (SEQ ID NO: 7)] (H-[Dap]YIQNDPLG-NH2; lactam 1-6) |  | > 2500 | > 2500 |  |  |  |  |  |
| CC[C@H](C)[C@@H]1NC(=O)[C@H](Cc2ccc(O)cc2)NC(=O)[C@@H](N)CC(=O)NC[C@@H](C(=O)N2CCC[C@H]2C(=O)N[C@@H](CC(C)C)C(=O)N[C@@H](COC2O[C@H](CO)[C@@H](O)[C@H](O)[C@H]2O)C(N)=O)NC(=O)[C@H](CC(N)=O)NC(=O)[C@H](CCC(N)=O)NC1=O (stereo partly drawn) [2LS118-4, Asp-Tyr-Ile-Gln-Asn-Dap-Pro-Leu-SerGlc-CONH2 (SEQ ID NO: 8)] (H-DYIQN[Dap]PLS(X1)-NH2; lactam 1-6; N-terminus assumed) |  |  |  | significantly higher peak effect than 2LS118-1 | near-maximal efficacy comparable to 10 mg/kg morphine; also recorded: almost half to full maximal efficacy vs. morphine | high anti-nociceptive efficacy; also recorded: substantially equivalent anti-nociception | the same degree and duration of anti-nociceptive activity; also recorded: substantially equivalent anti-nociception |  |
| CC[C@H](C)[C@@H]1NC(=O)[C@H](Cc2ccc(O)cc2)NC(=O)[C@@H](N)CSSC[C@@H](C(=O)N2CCC[C@H]2C(=O)N[C@@H](CC(C)C)C(=O)NCC(N)=O)NC(=O)[C@H](CC(N)=O)NC(=O)[C@H](CCC(N)=O)NC1=O [native OT, Cys-Tyr-Ile-Gln-Asn-Cys-Pro-Leu-Gly-CONH2 (SEQ ID NO: 1), reference compound] |  |  |  |  | no anti-nociception; also recorded: no efficacy |  | the same degree and duration of anti-nociceptive activity; also recorded: substantially equivalent anti-nociception | no effect |
